From US20180042929A1, “USE OF SUBSTITUTED 2,3-DIHYDROIMIDAZO[1,2-C]QUINAZOLINES” (Bayer Pharma Aktiengesellschaft, priority 2015, published 2018)

How the values were obtained:
[1] = system: MFE-280 xenograft tumor model; experiment: In vivo efficacy in MFE-280 xenograft tumor model; parameters: species or system nude mice; conditions: doxorubicin group
Description: (§1) The in vivo efficacy was evaluated in tumor xenograft models in nude mice with established human tumor cell lines at the MTD and sub-MTD dosages. Tumor cells were cultivated according to ATCC protocols in recommended media contained 10% FCS. Cells were harvested for transplantation in a subconfluent (70%) state. The volume of implantation was 100 μl for mice. When the tumors were approximately in size of 25-50 mm^2, the animals were randomized to treatment and control groups and treatment was started. Treatment of each animal was based on individual body weight. The optimal formulation, application route and schedule were used for each compound (see table 2). Oral administration (p.o.) was carried out via a gastric tube. The oral application volumes were 10 ml/kg and the intravenous application volumes were 10 ml/kg. Tumor area (product of the longest diameter and its perpendicular) using a calliper. The animal body weight was monitored as a measure for treatment-related toxicity. Measurement of tumor area and body weight was performed 2-3 times weekly. T/C ratios (Treatment/Control) were calculated with final tumor areas. Treatment responses were evaluated by means of the clinically-used RECIST criteria (complete response, partial response, stable disease and progressive disease) and response rates were calculated accordingly (RR=number of animals with complete and partial response).

[2] = system: HEC-1B xenograft tumor model; format: in vivo; conditions: 10 mg/kg Q14D i.p.
Description: as §1, with “T/C ratios (Treatment/Control) were calculated with final tumor areas.” left out

[3] = dose not printed (i.p. Q14D per Table 2)

COc1cccc2c1C(=O)c1c(O)c3c(c(O)c1C2=O)C[C@@](O)(C(=O)CO)C[C@@H]3O[C@H]1C[C@H](N)[C@H](O)[C@H](C)O1 [Doxorubicin]
CR (%) ([1]; dose not given): 0% | PD (%) ([1]; dose not given): 37.5% | PR (%) ([1]; dose not given): 12.5% | RR (%) ([1]; dose not given): 12.5% | T/C (tumor area) [1, 3]: 0.51 | T/C (tumor weight) [1, 3]: 0.39 | PD (progressive disease, number of tumors) [2]: 6 | Response rate [2]: 0% | T/C area (Treatment/Control ratio, mean tumor areas) ([2]; study end): 0.56 | T/C weight (Treatment/Control ratio, final tumor weights) ([2]; study end): 0.48
